# Data from patent US20150336943A1, “NOVEL BENZODIOXANE-PIPERIDINE DERIVATIVES AND THEIR THERAPEUTIC APPLICATIONS FOR TREATING NEUROPSYCHIATRIC DISORDERS” (PIERRE FABRE MEDICAMENT, priority 2013, published 2015).
# What was measured:
# [1] = target: T1, adrenergic receptor alpha2A (Homo sapiens, UniProt P08913); experiment: Inhibition constants (Ki) for adrenergic receptor alpha2A in recombinant cells; format: binding; details: read-out: pKi α2A (converted)
# T1 construct: expressed in transfected cells; host or cells: recombinant human cells (so in the source)
# T1 sequence (P08913 1-465): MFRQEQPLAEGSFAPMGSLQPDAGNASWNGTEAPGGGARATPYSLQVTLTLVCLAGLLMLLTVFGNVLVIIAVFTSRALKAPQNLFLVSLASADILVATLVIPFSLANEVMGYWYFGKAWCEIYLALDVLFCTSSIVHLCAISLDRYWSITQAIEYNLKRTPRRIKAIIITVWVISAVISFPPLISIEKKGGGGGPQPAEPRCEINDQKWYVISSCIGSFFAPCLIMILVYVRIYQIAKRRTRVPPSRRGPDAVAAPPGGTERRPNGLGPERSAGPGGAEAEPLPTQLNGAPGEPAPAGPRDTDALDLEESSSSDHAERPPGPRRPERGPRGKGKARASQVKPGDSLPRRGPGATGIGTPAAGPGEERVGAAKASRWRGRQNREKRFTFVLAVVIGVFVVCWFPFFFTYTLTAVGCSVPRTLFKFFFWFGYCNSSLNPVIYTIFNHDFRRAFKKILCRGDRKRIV
# Experimental: (§1) Compounds of formula 1 have been evaluated in vitro as ligands for dopaminergic and noradrenergic receptors and modulators of the activity of these receptors according to the invention in recombinant human cells expressing the receptors. The inhibition constants (Ki) were measured for dopaminergic receptors D2 and D3, and for adrenergic receptors alpha2A, alpha2B and alpha2C, according to the described methods (Newman-Tancredi A, Assie M B, Martel J C, Cosi C, Slot L B, Palmier C, Rauly-Lestienne I, Colpaert F, Vacher B, Cussac D. F15063, a potential antipsychotic with D2/D3 antagonist, 5-HT 1A agonist and D4 partial agonist properties. I. In vitro receptor affinity and efficacy profile. Br J Pharmacol., 2007, 151:237-252). The intrinsic activity of the products for the D2 receptor was measured (Bruins Slot L A, De Vries L, Newman-Tancredi A, Cussac D. Differential profile of antipsychotics at serotonin 5-HT1A and dopamine D2S receptors coupled to extracellular signal-regulated kinase. Eur J Pharmacol, 2006, 534; 63-70. The results obtained for some of these compounds are presented in the following table.
# dopaminergic receptor D2 = target: T2, dopaminergic receptor D2 (Homo sapiens, UniProt P14416); experiment: Inhibition constants (Ki) for dopaminergic receptor D2 in recombinant cells; format: binding; details: read-out: pKi D2 (converted)
# T2 construct: expressed in transfected cells; host or cells: recombinant human cells (so in the source)
# Experimental: as §1
# [2] = target: T3, adrenergic receptor alpha2B (Homo sapiens, UniProt P18089); experiment: Inhibition constants (Ki) for adrenergic receptor alpha2B in recombinant cells; format: binding; details: read-out: pKi α2B (converted)
# T3 construct: expressed in transfected cells; host or cells: recombinant human cells (so in the source)
# T3 sequence (P18089 1-450): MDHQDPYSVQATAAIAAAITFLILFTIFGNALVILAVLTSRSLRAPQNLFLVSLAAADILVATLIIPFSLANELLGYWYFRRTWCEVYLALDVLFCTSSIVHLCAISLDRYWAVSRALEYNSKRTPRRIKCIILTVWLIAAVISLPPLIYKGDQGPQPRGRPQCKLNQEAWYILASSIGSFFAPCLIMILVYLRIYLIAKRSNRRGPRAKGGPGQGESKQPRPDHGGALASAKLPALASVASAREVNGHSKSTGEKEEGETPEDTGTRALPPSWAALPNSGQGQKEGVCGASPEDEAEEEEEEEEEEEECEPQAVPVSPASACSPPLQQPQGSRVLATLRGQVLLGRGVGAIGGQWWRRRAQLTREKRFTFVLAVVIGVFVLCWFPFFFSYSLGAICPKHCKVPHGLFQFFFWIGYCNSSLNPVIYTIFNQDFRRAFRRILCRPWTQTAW
# Experimental: as §1
# [3] = system: MK-801-induced hyperactivity; experiment: MK-801-induced hyperactivity test in mice; format: in vivo; details: Mus musculus
# [4] = target: T4, adrenergic receptor alpha2C (Homo sapiens, UniProt P18825); experiment: Inhibition constants (Ki) for adrenergic receptor alpha2C in recombinant cells; format: binding; details: read-out: pKi α2C (converted)
# T4 construct: expressed in transfected cells; host or cells: recombinant human cells (so in the source)
# T4 sequence (P18825 1-462): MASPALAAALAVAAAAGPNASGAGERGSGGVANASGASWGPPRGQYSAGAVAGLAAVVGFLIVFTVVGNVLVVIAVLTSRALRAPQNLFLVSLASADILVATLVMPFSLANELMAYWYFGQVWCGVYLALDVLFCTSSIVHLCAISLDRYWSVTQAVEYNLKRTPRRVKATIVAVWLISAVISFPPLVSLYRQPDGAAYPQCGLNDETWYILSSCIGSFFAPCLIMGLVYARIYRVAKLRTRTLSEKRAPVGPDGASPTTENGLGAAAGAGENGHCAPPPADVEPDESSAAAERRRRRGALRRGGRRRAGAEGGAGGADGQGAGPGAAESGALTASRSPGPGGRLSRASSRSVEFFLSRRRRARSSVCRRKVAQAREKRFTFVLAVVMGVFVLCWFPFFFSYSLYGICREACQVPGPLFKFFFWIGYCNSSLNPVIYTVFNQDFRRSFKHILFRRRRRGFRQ
# Experimental: as §1
# D2 receptor = target: T5, D2 receptor (Homo sapiens, UniProt P14416); experiment: Intrinsic (agonist) activity at the D2 receptor; format: cell-based
# T5 construct: expressed in transfected cells; host or cells: recombinant human cells (so in the source)
# Experimental: The prior art mentions, for benzodioxane-piperidine derivatives bearing an amide, a urea or an imidazolidinone, as non-selective alpha2-antagonists (WO 97/28157, WO 98/02435); some of these products also have a weak affinity for the D2 dopaminergic receptor (T. Imbert, J. Med. Chem, 2000, 43: 3653-3664). […] Activity as a D2 and D3 receptor agonist was determined according to the described methods (Bruins Slot L A, De Vries L, Newman-Tancredi A, Cussac D. Differential profile of antipsychotics at serotonin 5-HT1A and dopamine D2S receptors coupled to extracellular signal-regulated kinase. Eur J Pharmacol, 2006, 534; 63-70; Bruins Slot L A, Palmier C, Tardif S, Cussac D. Action of novel antipsychotics at human dopamine D3 receptors coupled to G protein and ERK1/2 activation. Neuropharmacology, 2007, 53: 232-241) for the following compounds, such as described in WO 97/28157 and WO 98/02435; • 1-benzyl-3-(2-(1-((2,3-dihydrobenzo[b][1,4]dioxin-2-yl)methyl)piperidin-4-yl)ethyl)imidazolidin-2-one • 1-(2-(1-((2,3-dihydrobenzo[b][1,4]dioxin-2-yl)methyl)piperidin-4-yl)ethyl)-3-methylimidazolidin-2-one • 1-(2,6-dichlorophenyl)-3-(2-(1-((2,3-dihydrobenzo[b][1,4]dioxin-2-yl)methyl)piperidin-4-yl)ethyl)imidazolidin-2-one • 1-(2-(1-((2,3-dihydrobenzo[b][1,4]dioxin-2-yl)methyl)piperidin-4-yl)ethyl)-3-(pyridin-4-yl)imidazolidin-2-one • 3-(2-(1-((2,3-dihydrobenzo[b][1,4]dioxin-2-yl)methyl)piperidin-4-yl)ethyl)-1-phenylimidazolidine-2,4-dione • (S)—N-(2-(1-((2,3-dihydrobenzo[b][1,4]dioxin-2-yl)methyl)piperidin-4-yl)ethyl)-[1,1′-biphenyl]-4-carboxamide • (S)—N-(2-(1-((2,3-dihydrobenzo[b][1,4]dioxin-2-yl)methyl)piperidin-4-yl)ethyl)-4-(1H-pyrrol-1-yl)benzamide • (S)—N-(2-(1-((2,3-dihydrobenzo[b][1,4]dioxin-2-yl)methyl)piperidin-4-yl)ethyl)-4-(pyridin-4-yl)benzamide • (S)—N-(2-(1-((2,3-dihydrobenzo[b][1,4]dioxin-2-yl)methyl)piperidin-4-yl)ethyl)-4-(pyridin-3-yl)benzamide • (S)—N-(2-(1-((2,3-dihydrobenzo[b][1,4]dioxin-2-yl)methyl)piperidin-4-yl)ethyl)-9-oxo-9H-fluorene-1-carboxamide.
# as §1
# dopaminergic receptor D3 = target: T6, dopaminergic receptor D3 (Homo sapiens, UniProt P35462); experiment: Inhibition constants (Ki) for dopaminergic receptor D3 in recombinant cells; format: binding; details: read-out: pKi D3 (converted)
# T6 construct: expressed in transfected cells; host or cells: recombinant human cells (so in the source)
# Experimental: as §1
# T6 sequence (P35462 whole entry): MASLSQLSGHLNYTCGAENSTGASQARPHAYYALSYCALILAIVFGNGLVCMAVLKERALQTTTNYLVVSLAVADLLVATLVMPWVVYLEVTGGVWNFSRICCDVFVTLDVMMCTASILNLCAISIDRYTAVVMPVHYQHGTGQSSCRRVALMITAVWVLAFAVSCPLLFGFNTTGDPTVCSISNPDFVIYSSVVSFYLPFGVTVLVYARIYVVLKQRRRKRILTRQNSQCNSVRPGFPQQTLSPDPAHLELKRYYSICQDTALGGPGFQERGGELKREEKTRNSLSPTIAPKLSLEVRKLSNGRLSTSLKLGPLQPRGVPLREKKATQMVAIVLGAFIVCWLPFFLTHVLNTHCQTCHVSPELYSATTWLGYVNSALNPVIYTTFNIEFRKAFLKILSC
# T2 sequence (P14416 whole entry): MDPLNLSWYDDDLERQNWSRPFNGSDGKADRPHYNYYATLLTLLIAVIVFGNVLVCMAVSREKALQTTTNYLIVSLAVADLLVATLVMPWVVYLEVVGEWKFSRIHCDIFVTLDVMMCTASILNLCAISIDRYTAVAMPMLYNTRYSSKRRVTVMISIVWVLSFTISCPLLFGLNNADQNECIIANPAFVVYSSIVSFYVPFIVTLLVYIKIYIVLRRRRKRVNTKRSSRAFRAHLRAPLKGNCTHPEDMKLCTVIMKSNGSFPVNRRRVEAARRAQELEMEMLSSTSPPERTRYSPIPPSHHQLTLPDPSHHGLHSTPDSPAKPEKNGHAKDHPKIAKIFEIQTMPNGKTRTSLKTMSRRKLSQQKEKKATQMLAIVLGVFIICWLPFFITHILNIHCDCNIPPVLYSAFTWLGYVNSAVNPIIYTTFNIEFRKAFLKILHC
# T5 sequence (P14416 1-414 isoform P14416-2): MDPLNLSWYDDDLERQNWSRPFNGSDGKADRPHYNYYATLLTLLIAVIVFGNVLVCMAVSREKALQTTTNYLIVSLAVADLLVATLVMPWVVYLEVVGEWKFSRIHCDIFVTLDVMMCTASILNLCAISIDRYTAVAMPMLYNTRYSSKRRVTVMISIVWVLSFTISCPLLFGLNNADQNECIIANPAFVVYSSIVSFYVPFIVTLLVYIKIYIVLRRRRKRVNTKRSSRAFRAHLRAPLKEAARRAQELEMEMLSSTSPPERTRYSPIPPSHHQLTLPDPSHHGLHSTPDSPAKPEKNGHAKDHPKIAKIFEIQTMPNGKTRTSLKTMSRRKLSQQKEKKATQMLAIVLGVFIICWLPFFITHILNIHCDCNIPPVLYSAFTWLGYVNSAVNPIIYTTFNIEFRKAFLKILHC
SMILES,Ki [1] [nM],Ki (dopaminergic receptor D2) [nM],Ki [2] [nM],Ki [4] [nM],I.A.: Intrinsic activity on receptor D2 in vitro (D2 receptor),Ki (dopaminergic receptor D3) [nM],ED50 [3] [mg/kg]
"O=C1COCCN1CCC1CCN(C[C@H]2COc3c(F)cc(Cl)cc3O2)CC1 [Example 94, (S)-4-(2-(1-((7-chloro-5-fluoro-2,3-dihydrobenzo[b][1,4]dioxin-2-yl)methyl)piperidin-4-yl)ethyl)morpholin-3-one]",5.37,1.66,4.47,0.617,0 percentage of that of dopamine,0.347,0.19
"O=C1OC[C@@H](CO)N1CCC1CCN(C[C@H]2COc3c(F)cc(Cl)cc3O2)CC1 [Example 62, (R)-3-(2-(1-(((S)-7-chloro-5-fluoro-2,3-dihydrobenzo[b][1,4]dioxin-2-yl)methyl)piperidin-4-yl)ethyl)-4-(hydroxymethyl)oxazolidin-2-one]",30.9,1.58,10.5,1.62,0 percentage of that of dopamine,0.347,2.1
"O=C1OC[C@H](Cc2ccccc2)N1CCC1CCN(C[C@H]2COc3ccc(Br)cc3O2)CC1 [Example 26, (S)-4-benzyl-3-(2-(1-(((S)-7-bromo-2,3-dihydrobenzo[b][1,4]dioxin-2-yl)methyl)piperidin-4-yl)ethyl)oxazolidin-2-one]",34.7,0.891,9.55,2.04,8 percentage of that of dopamine,0.447,0.9
"O=C1OC[C@H](Cc2ccccc2)N1CCC1CCN(C[C@H]2COc3ccc(OC(F)(F)F)cc3O2)CC1 [Example 32, (S)-4-benzyl-3-(2-(1-(((S)-7-(trifluoromethoxy)-2,3-dihydrobenzo[b][1,4]dioxin-2-yl)methyl)piperidin-4-yl)ethyl)oxazolidin-2-one]",15.1,1.26,18.2,6.61,,0.355,2.4
"O=C1OC[C@@H](CO)N1CCC1CCN(C[C@H]2COc3c(Cl)cc(F)cc3O2)CC1 [Example 63, (R)-3-(2-(1-(((S)-5-chloro-7-fluoro-2,3-dihydrobenzo[b][1,4]dioxin-2-yl)methyl)piperidin-4-yl)ethyl)-4-(hydroxymethyl)oxazolidin-2-one]",53.7,3.09,8.32,2.69,5 percentage of that of dopamine,1.32,0.2
O=C1OC[C@H](Cc2ccccc2)N1CCC1CCN(C[C@H]2COc3cc(O)ccc3O2)CC1 [Example 36],6.03,2.14,1.17,0.562,,1.29,3.4
"O=C1COCCN1CCC1CCN(C[C@H]2COc3c(F)cc(F)cc3O2)CC1 [Example 91, (S)-4-(2-(1-((5,7-difluoro-2,3-dihydrobenzo[b][1,4]dioxin-2-yl)methyl)piperidin-4-yl)ethyl)morpholin-3-one]",4.9,15.1,1.55,0.437,24 percentage of that of dopamine,3.31,0.7

# Now from value to compound, other results behind:
Ki [1] [nM],Ki (dopaminergic receptor D2) [nM],Ki [2] [nM],Ki [4] [nM],I.A.: Intrinsic activity on receptor D2 in vitro (D2 receptor),Ki (dopaminergic receptor D3) [nM],SMILES,ED50 [3] [mg/kg]
8.71,14.5,1.95,0.851,36 percentage of that of dopamine,6.46,"O=C1OCCN1CCC1CCN(C[C@H]2COc3ccc(F)cc3O2)CC1 [Example 7, (S)-3-(2-(1-((7-fluoro-2,3-dihydrobenzo[b][1,4]dioxin-2-yl)methyl)piperidin-4-yl)ethyl)oxazolidin-2-one]",0.15
57.5,19.1,81.3,6.76,,1.23,"N#Cc1ccc2c(c1)O[C@@H](CN1CCC(CCN3CCOCC3=O)CC1)CO2 [Example 85, (S)-3-((4-(2-(3-oxomorpholino)ethyl)piperidin-1-yl)methyl)-2,3-dihydrobenzo[b][1,4]dioxine-6-carbonitrile]",0.5
4.57,4.57,0.813,0.537,6 percentage of that of dopamine,1.55,"O=C1OCCN1CCC1CCN(C[C@H]2COc3c(F)cc(F)cc3O2)CC1 [Example 10, (S)-3-(2-(1-((5,7-difluoro-2,3-dihydrobenzo[b][1,4]dioxin-2-yl)methyl)piperidin-4-yl)ethyl)oxazolidin-2-one]",0.13
7.08,0.955,2.57,0.955,16 percentage of that of dopamine,0.603,"O=C1OCCN1CCC1CCN(C[C@H]2COc3c(Cl)cc(F)cc3O2)CC1 [Example 13, (S)-3-(2-(1-((5-chloro-7-fluoro-2,3-dihydrobenzo[b][1,4]dioxin-2-yl)methyl)piperidin-4-yl)ethyl)oxazolidin-2-one]",0.04
